Experimental data from ChEMBL document CHEMBL1145320, “3,4,5-Trisubstituted isoxazoles as novel PPARdelta agonists: Part 1” (Bioorg Med Chem Lett, 2006).

Experiments:
[1] = biological target: T1, Peroxisome proliferator-activated receptor gamma (Homo sapiens, UniProt P37231); assay: Agonist activity at PPARgamma by transactivation assay; assay type: functional
T1 sequence (P37231 whole entry): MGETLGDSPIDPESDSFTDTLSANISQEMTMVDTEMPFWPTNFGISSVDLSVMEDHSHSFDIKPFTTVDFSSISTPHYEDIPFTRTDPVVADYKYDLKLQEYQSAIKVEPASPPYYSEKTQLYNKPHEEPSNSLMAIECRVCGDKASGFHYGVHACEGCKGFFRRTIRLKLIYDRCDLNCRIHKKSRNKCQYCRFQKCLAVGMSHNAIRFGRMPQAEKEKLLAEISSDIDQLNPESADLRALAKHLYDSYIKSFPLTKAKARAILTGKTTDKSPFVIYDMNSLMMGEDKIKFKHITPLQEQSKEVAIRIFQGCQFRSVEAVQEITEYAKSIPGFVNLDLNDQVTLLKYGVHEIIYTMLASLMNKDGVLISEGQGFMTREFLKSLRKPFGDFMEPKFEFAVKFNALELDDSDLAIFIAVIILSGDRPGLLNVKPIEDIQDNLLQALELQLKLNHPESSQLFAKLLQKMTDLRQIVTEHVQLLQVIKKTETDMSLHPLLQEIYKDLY

[2] = biological target: T2, Peroxisome proliferator-activated receptor alpha (Homo sapiens, UniProt Q07869); assay: Agonist activity at PPARalpha by transactivation assay; assay type: functional
T2 sequence (Q07869 whole entry): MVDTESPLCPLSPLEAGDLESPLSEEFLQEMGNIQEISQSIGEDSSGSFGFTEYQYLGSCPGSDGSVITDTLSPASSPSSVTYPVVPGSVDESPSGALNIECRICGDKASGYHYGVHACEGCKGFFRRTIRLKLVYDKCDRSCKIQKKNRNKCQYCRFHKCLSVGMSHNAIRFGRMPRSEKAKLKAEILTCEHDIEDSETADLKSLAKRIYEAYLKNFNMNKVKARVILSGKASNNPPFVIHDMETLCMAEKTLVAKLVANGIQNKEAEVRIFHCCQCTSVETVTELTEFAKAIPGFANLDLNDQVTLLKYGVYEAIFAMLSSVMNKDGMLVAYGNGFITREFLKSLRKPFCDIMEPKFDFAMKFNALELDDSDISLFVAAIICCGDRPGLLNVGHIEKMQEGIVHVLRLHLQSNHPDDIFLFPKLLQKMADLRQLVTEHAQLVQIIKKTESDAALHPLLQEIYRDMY

[3] = biological target: T3, Peroxisome proliferator-activated receptor delta (Homo sapiens, UniProt Q03181)
T3 sequence (Q03181 whole entry): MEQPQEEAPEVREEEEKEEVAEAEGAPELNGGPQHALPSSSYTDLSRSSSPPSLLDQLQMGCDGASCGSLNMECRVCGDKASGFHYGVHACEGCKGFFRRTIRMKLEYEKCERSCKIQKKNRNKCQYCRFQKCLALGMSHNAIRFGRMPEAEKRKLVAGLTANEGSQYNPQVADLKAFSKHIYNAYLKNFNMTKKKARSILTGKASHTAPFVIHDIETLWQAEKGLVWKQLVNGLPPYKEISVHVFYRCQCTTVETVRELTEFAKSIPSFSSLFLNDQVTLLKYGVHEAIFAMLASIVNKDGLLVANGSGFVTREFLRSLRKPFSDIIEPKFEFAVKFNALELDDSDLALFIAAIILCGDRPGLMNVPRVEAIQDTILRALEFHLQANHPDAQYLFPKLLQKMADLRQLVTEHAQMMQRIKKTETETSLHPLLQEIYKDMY
Description: (§1) Agonist activity at PPARdelta by transactivation assay

[4] = biological target: T3, Peroxisome proliferator-activated receptor delta; remark: listed apart in the source
Description: as §1

SMILES	EC50 ([1]; read-out: EC50)	EC50 ([2]; read-out: EC50)	EC50 [3]	EC50 [1]	EC50 [2]	EC50 [4]
CCc1onc(-c2ccc(CC(=O)O)cc2Cl)c1C(=O)NCCOc1ccc(Cl)cc1Cl	> 10000 nM	> 10000 nM	110 nM	–	–	–
CC(C)c1onc(-c2ccc(CC(=O)O)cc2Cl)c1C(=O)NCCOc1ccc(Cl)cc1Cl	> 10000 nM	7110 nM	90 nM	–	–	–
Cc1onc(-c2ccc(CC(=O)O)cc2Cl)c1C(=O)NCCOc1ccc(C(F)(F)F)cc1[N+](=O)[O-]	1250 nM	340 nM	4 nM	–	–	–
CC(C)(C)c1onc(-c2ccc(CC(=O)O)cc2Cl)c1C(=O)NCCOc1ccc(Cl)cc1Cl	> 10000 nM	> 10000 nM	2590 nM	–	–	–
O=C(O)Cc1ccc(-c2noc(-c3ccccc3)c2COCCOc2ccc(Cl)cc2Cl)c(Cl)c1	> 10000 nM	> 10000 nM	190 nM	–	–	–
O=C(O)Cc1ccc(-c2noc(C3CC3)c2C(=O)NCCOc2ccc(Cl)cc2Cl)c(Cl)c1	3230 nM	1670 nM	30 nM	–	–	–
Cc1onc(-c2ccc(CC(=O)O)cc2Cl)c1C(=O)NCCOc1ccccc1[N+](=O)[O-]	> 10000 nM	> 10000 nM	> 10000 nM	–	–	–
Cc1onc(-c2ccc(CC(=O)O)cc2Cl)c1COCCOc1ccc(C(F)(F)F)cc1[N+](=O)[O-]	> 10000 nM	220 nM	130 nM	–	–	–
O=C(O)Cc1ccc(-c2noc(-c3ccccc3)c2C(=O)NCCOc2ccc(Cl)cc2Cl)c(Cl)c1	> 10000 nM	> 10000 nM	80 nM	–	–	–
Cc1onc(-c2ccc(CC(=O)O)cc2Cl)c1C(=O)NCCOc1ccc(C(F)(F)F)cc1C(F)(F)F	> 10000 nM	> 10000 nM	260 nM	–	–	–
Cc1cc(SCc2cc(-c3c(Cl)cccc3Cl)no2)ccc1OCC(=O)O	–	–	–	Not Active	Not Active	Not Active
Cc1onc(-c2ccc(CC(=O)O)cc2Cl)c1C(=O)NCCOc1ccc(C(F)(F)F)cc1	> 10000 nM	> 10000 nM	> 10000 nM	–	–	–
CN(CCOc1ccc(Cl)cc1Cl)C(=O)c1c(-c2ccc(CC(=O)O)cc2Cl)noc1-c1ccccc1	> 10000 nM	> 10000 nM	3670 nM	–	–	–
Cc1onc(-c2ccc(CC(=O)O)cc2Cl)c1C(=O)NCCOc1ccc(Cl)cc1Cl	> 10000 nM	> 10000 nM	310 nM	–	–	–
O=C(O)Cc1ccc(-c2noc(-c3ccco3)c2C(=O)NCCOc2ccc(Cl)cc2Cl)c(Cl)c1	> 10000 nM	> 10000 nM	10 nM	–	–	–
O=C(O)Cc1ccc(-c2noc(-c3ccccc3)c2C(=O)CCCOc2ccc(Cl)cc2Cl)c(Cl)c1	> 10000 nM	> 10000 nM	30 nM	–	–	–
O=C(O)Cc1ccc(-c2noc(C(=O)CCCOc3ccc(Cl)cc3Cl)c2-c2ccccc2)c(Cl)c1	–	–	–	Not Active	Not Active	Not Active
Cc1onc(-c2c(Cl)cccc2Cl)c1C(=O)OCCOc1ccc(C(F)(F)F)cc1[N+](=O)[O-]	> 10000 nM	> 10000 nM	230 nM	–	–	–
